Test results reported in patent US20260285850A1, “SUBSTITUTED OXAZOLIDINONES AND IMIDAZOLINONES AS HERBICIDES” (FMC CORPORATION, priority 2023, published 2026).

What was measured:
Assay type in all cases: in vivo
[1] = system: wheat (Triticum aestivum); assay: Test A preemergence soil spray, visual injury rating 0-100; details: 10 days
How it was run: (§1)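 Grow plants in loam soil blended with sand. Apply formulated compound (non-phytotoxic solvent, surfactant) as a directed soil spray before emergence, or to plants at the one- to two-leaf stage after emergence. Hold in greenhouse 10 days, then rate injury visually versus untreated controls on a 0-100 scale.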

[2] = system: blackgrass (Alopecurus myosuroides); assay: as above; details: 10 days
How it was run: as §1

kochia (Bassia scoparia) [3] = assay: as above; details: 10 days
How it was run: as §1

[4] = system: ryegrass, Italian (italian ryegrass, Lolium multiflorum); assay: as above; details: 10 days
How it was run: as §1

[5] = system: ragweed (common ragweed, Ambrosia artemisiifolia); assay: as above; details: 10 days
How it was run: as §1

corn (Zea mays) [6] = assay: as above; details: 10 days
How it was run: as §1

[7] = system: palmer (palmer amaranth, palmer pigweed, Amaranthus palmeri); assay: as above; details: 10 days
How it was run: as §1

[8] = system: green foxtail (Setaria viridis); assay: as above; details: 10 days
How it was run: as §1

soybean (Glycine max) [9] = assay: as above; details: 10 days
How it was run: as §1

[10] = system: barnyardgrass (Echinochloa crus-galli); assay: as above; details: 10 days
How it was run: as §1

[11] = system: oat, wild (wild oat, Avena fatua); assay: as above; details: 10 days
How it was run: as §1

[12] = system: sedge, umbrella (small-flower umbrella sedge, Cyperus difformis); assay: Test B flooded paddy test, visual plant response rating 0-100; details: 250 g ai/ha, Flood, applied to paddy water, evaluated after 13 days
How it was run: (§2)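 Treatment occurs at the 2-leaf stage by adding compound to floodwater standing 3 cm above the soil, a level kept for the whole test. Plants stay in the greenhouse 13 days before visual comparison with controls.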

[13] = system: ducksalad (Heteranthera limosa); assay: as above; details: 250 g ai/ha, Flood, applied to paddy water, evaluated after 13 days
How it was run: as §2

[14] = system: barnyardgrass (Echinochloa crusgalli); assay: as above; details: 250 g ai/ha, Flood, applied to paddy water, evaluated after 13 days
How it was run: as §2

rice (Oryza sativa) = assay: as above; details: 250 g ai/ha, Flood, applied to paddy water, evaluated after 13 days
How it was run: as §2

[15] = system: wheat (Triticum aestivum); assay: Test A postemergence application, visual injury rating 0-100
How it was run: as §1

[16] = system: blackgrass (Alopecurus myosuroides); assay: as above
How it was run: as §1

kochia (Bassia scoparia) [17] = assay: as above
How it was run: as §1

[18] = system: ryegrass, Italian (italian ryegrass, Lolium multiflorum); assay: as above
How it was run: as §1

[19] = system: ragweed (common ragweed, Ambrosia artemisiifolia); assay: as above
How it was run: as §1

[20] = system: horseweed (Erigeron canadensis); assay: as above
How it was run: as §1

corn (Zea mays) [21] = assay: as above
How it was run: as §1

[22] = system: palmer (palmer amaranth, palmer pigweed, Amaranthus palmeri); assay: as above
How it was run: as §1

[23] = system: galium (catchweed bedstraw, Galium aparine); assay: as above; details: Postemergence, 16 g ai/ha, greenhouse 10 days; 0 no effect, 100 complete control
How it was run: as §1

[24] = system: green foxtail (Setaria viridis); assay: as above
How it was run: as §1

soybean (Glycine max) [25] = assay: as above
How it was run: as §1

[26] = system: barnyardgrass (Echinochloa crus-galli); assay: as above
How it was run: as §1

[27] = system: oat, wild (wild oat, Avena fatua); assay: as above
How it was run: as §1

[28] = 62 g ai/ha, 0 = no effect, 100 = complete control
[29] = 62 g ai/ha, postemergence, 10 days, 0 = no effect, 100 = complete control
[30] = Postemergence, 16 g ai/ha, greenhouse 10 days, 0 no effect, 100 complete control

CC1(C(=O)NC2CC=C(C(=O)OCC(F)F)C2)CN(c2cc(F)cc(F)c2)C(=O)O1 (stereo not drawn) [Compound 152]
Wheat plant response rating ([1]; 16 g ai/ha, 0 to 100 scale): 70 | Wheat plant response rating (0-100) [1, 28]: 90 | Blackgrass plant response rating ([2]; 16 g ai/ha, 0 to 100 scale): 0 | Blackgrass plant response rating (0-100) [2, 28]: 0 | Kochia plant response rating (kochia (Bassia scoparia) [3]; 16 g ai/ha, 0 to 100 scale): 90 | Kochia plant response rating (0-100) (kochia (Bassia scoparia) [3]; [28]): 90 | Ryegrass, Italian plant response rating ([4]; 16 g ai/ha, 0 to 100 scale): 70 | Ryegrass, Italian plant response rating (0-100) [4, 28]: 90 | Ragweed plant response rating ([5]; 16 g ai/ha, 0 to 100 scale): 0 | Ragweed plant response rating (0-100) [5, 28]: 30 | Corn plant response rating (corn (Zea mays) [6]; 16 g ai/ha, 0 to 100 scale): 10 | Corn plant response rating (0-100) (corn (Zea mays) [6]; [28]): 60 | Pigweed, Palmer plant response rating ([7]; 16 g ai/ha, 0 to 100 scale): 0 | Pigweed, Palmer plant response rating (0-100) [7, 28]: 90 | Foxtail, Green plant response rating ([8]; 16 g ai/ha, 0 to 100 scale): 30 | Foxtail, Green plant response rating (0-100) [8, 28]: 100 | Soybean plant response rating (soybean (Glycine max) [9]; 16 g ai/ha, 0 to 100 scale): 0 | Soybean plant response rating (0-100) (soybean (Glycine max) [9]; [28]): 60 | Barnyardgrass plant response rating ([10]; 16 g ai/ha, 0 to 100 scale): 30 | Barnyardgrass plant response rating (0-100) [10, 28]: 100 | Oat, Wild plant response rating ([11]; 16 g ai/ha, 0 to 100 scale): 0 | Oat, Wild plant response rating (0-100) [11, 28]: 70 | Plant response rating, Sedge, Umbrella (0 to 100 scale, 0 is no effect and 100 is complete control) [12]: 90 | Plant response rating, Ducksalad (0 to 100 scale, 0 is no effect and 100 is complete control) [13]: 80 | Plant response rating, Barnyardgrass (0 to 100 scale, 0 is no effect and 100 is complete control) [14]: 90 | Plant response rating, Rice (0 to 100 scale, 0 is no effect and 100 is complete control) (rice (Oryza sativa)): 85 | Wheat plant response rating (0-100) [15, 29]: 90 | Wheat plant response rating (0 to 100 scale) [15, 30]: 80 | Blackgrass plant response rating (0-100) [16, 29]: 100 | Blackgrass plant response rating (0 to 100 scale) [16, 30]: 70 | Kochia plant response rating (0-100) (kochia (Bassia scoparia) [17]; [29]): 90 | Kochia plant response rating (0 to 100 scale) (kochia (Bassia scoparia) [17]; [30]): 90 | Ryegrass, Italian plant response rating (0-100) [18, 29]: 80 | Ryegrass, Italian plant response rating (0 to 100 scale) [18, 30]: 70 | Ragweed plant response rating (0-100) [19, 29]: 50 | Ragweed plant response rating (0 to 100 scale) [19, 30]: 20 | Horseweed plant response rating (0-100) [20, 29]: 70 | Horseweed plant response rating (0 to 100 scale) [20, 30]: 30 | Corn plant response rating (0-100) (corn (Zea mays) [21]; [29]): 100 | Corn plant response rating (0 to 100 scale) (corn (Zea mays) [21]; [30]): 100 | Pigweed, Palmer plant response rating (0-100) [22, 29]: 90 | Pigweed, Palmer plant response rating (0 to 100 scale) [22, 30]: 60 | Galium plant response rating (0 to 100 scale) [23]: 70 | Foxtail, Green plant response rating (0-100) [24, 29]: 90 | Foxtail, Green plant response rating (0 to 100 scale) [24, 30]: 90 | Soybean plant response rating (0-100) (soybean (Glycine max) [25]; [29]): 80 | Soybean plant response rating (0 to 100 scale) (soybean (Glycine max) [25]; [30]): 60 | Barnyardgrass plant response rating (0-100) [26, 29]: 100 | Barnyardgrass plant response rating (0 to 100 scale) [26, 30]: 100 | Oat, Wild plant response rating (0-100) [27, 29]: 90 | Oat, Wild plant response rating (0 to 100 scale) [27, 30]: 80
